Organism: Homo sapiens
Experiment: Compound tested for hallucinogenic activity in humans was reported; Value reported in (A)= Mescaline units
Format: functional

Compound	Activity
COc1cc(OC)c(CC(C)N)c(OC)c1 (stereo not given)	10
CCSc1cc(OC)c(CCNO)cc1OC	22
COc1cc(C)c(SC)cc1CC(C)N (stereo not given)	7
COc1cc(SC(C)C)c(OC)cc1CC(C)N (stereo not given)	32
COc1cc(CC(C)N)c(OC)c2c1OCO2 (stereo not given)	6
COc1cc(CC(C)N)c(OC)cc1CCF (stereo not given)	110
CCNC(C)Cc1ccc2c(c1)OCO2 (stereo not given)	2
COc1cc(OC)c(OC)cc1CC(C)N (stereo not given)	10
CCOc1cc(CCN)cc(OC)c1SCC	4
CCC(Cc1ccc2c(c1)OCO2)NC (stereo not given)	1.5
CCCOc1c(OC)cc(CCN)cc1OC	7
COc1cc(CC(C)N)cc(OC)c1OC (stereo not given)	2
COc1cc(SC(C)(C)C)c(OC)cc1CCN	4
COc1cc(CCN)c(OC)cc1C	8
CC(Cc1ccc2c(c1)OCO2)NO (stereo not given)	2.3
COc1cc(CC(C)N)c(OC)c(C)c1C (stereo not given)	12
COc1cc([N+](=O)[O-])c(OC)cc1CC(C)N (stereo not given)	80
CCOc1cc(CCN)cc(SC)c1OCC	2
CCc1cc(OC)c(CC(C)N)cc1OC (stereo not given)	75
COc1cc(SCCF)c(OC)cc1CCN	29
CCOc1cc(CCN)cc(OC)c1OC	1
COc1cc(CCN)c(OC)cc1Br	16

Compound	Activity
COc1cc(CC(C)N)c(OC)cc1Cl (stereo not given)	133
COc1cc(CC(C)N)c(SC)cc1C (stereo not given)	4
COc1cc(C)cc(OC)c1CC(C)N (stereo not given)	15
COc1cc(CCN)c(OC)cc1I	17
CCC(C)Sc1cc(OC)c(CCN)cc1OC (stereo not given)	4
CCOc1c(OC)cc(CCN)cc1SC	4
COc1cc(CC(C)N)c(OC)cc1I (stereo not given)	133
COc1cc(CCN)cc(OC)c1OCC1CC1	4
COc1cc(CC(C)N)cc(OC)c1Br (stereo not given)	43
COc1cc(CC(C)N)c(OC)c(OC)c1 (stereo not given)	4
COc1cc(CC(C)N)cc2c1OCO2 (stereo not given)	2
COCCSc1cc(OC)c(CCN)cc1OC	9
COc1cc2c(cc1CC(C)N)OCO2 (stereo not given)	8
COc1c(CC(C)N)ccc2c1OCO2 (stereo not given)	6
COc1cc(CCN)c(OC)c2c1CCC2	14
CCC(C)Sc1cc(OC)c(CCNO)cc1OC (stereo not given)	3
CCCCSc1c(OC)cc(CCN)cc1OC	3
COc1cc(CCN)cc(OC)c1C	4
CCSc1cc(OC)c(CCN)cc1OC	16
COc1cc(SC(C)C)c(OC)cc1CCN	21
CC(N)Cc1ccc2c(c1)OCO2 (stereo not given) [TENAMFETAMINE]	3
C=C(C)COc1c(OC)cc(CCN)cc1OC	6

Compound	Activity
CCOc1cc(OC)c(CC(C)N)cc1OC (stereo not given)	9
CCOc1c(OC)cc(CCN)cc1SCC	2
CC(C)(N)Cc1ccc2c(c1)OCO2	1.5
COc1ccc(OC)c(OC)c1CC(C)N (stereo not given)	10
COc1cc(CCN)c(OC)c2c1C1CCC2C1 (stereo not given)	22
CCSc1cc(CCN)cc(OC)c1OC	4
CCC(N)Cc1ccc2c(c1)OCO2 (stereo not given)	1.5
COc1ccc(CC(C)N)cc1 (stereo not given) [PARA-METHOXYAMPHETAMINE]	5
CCOc1c(OC)cc(CC(C)N)cc1OC (stereo not given)	7
COc1cc(CC(C)N)c(OC)cc1Br (stereo not given) [BROLAMFETAMINE]	150
CCCc1cc(OC)c(CCN)cc1OC	37
CCCSc1cc(OC)c(CCNO)cc1OC	15
CCc1cc(OC)c(CC(C)N)cc1SC (stereo not given)	15
COc1cc(OC)c(CC(C)N)cc1Br (stereo not given)	4
COc1cc(SC)c(OC)cc1CC(C)N (stereo not given)	40
CCSc1cc(OC)c(CC(C)N)cc1OC (stereo not given)	50
COc1cc(CCN)cc(SC)c1OC	4
COc1cc(CCN)cc(OC)c1OC [MESCALINE]	1
COc1cc(CCN)cc(OC)c1SC	10
COc1cc(CCN)cc(OC)c1OC(C)C	5
COc1cc(SCC2CC2)c(OC)cc1CCN	7
CCSc1c(OC)cc(CCN)cc1OC	12

Compound	Activity
CCc1cc(OC)c(CCN)cc1OC	18
COc1cc(CC(C)N)c(OC)c2c1CCC2 (stereo not given)	20
COc1cc(CCN)c(OC)c(C)c1C	11
C=CCOc1c(OC)cc(CC(C)N)cc1OC (stereo not given)	11
COc1cc(C2CC2N)c(OC)cc1C (stereo not given)	17
CCOc1cc(CCN)cc(OC)c1SC	4
COc1cc(CC(C)N)cc(OC)c1OCc1ccccc1 (stereo not given)	3
COc1ccc(OC)c(CC(C)N)c1 (stereo not given)	2.5
COc1cc(CCN)c(OC)cc1Cl	10
COc1cc(CCN)c(OC)c2ccccc12	10
CCCSc1cc(OC)c(CC(C)N)cc1OC (stereo not given)	55
CCCSc1cc(OC)c(CCN)cc1OC	15
CCCc1cc(OC)c(CC(C)N)cc1OC (stereo not given)	80
COc1cc(CC(C)N)c(OC)cc1C (stereo not given) [DOM]	50
CCOc1cc(CCN)cc(OC)c1OCC	1.3
COc1cc(CC(C)N)c(OC)c(OC)c1OC (stereo not given)	6
COc1cc(SC)c(OC)cc1CCN	4
CCCSc1c(OC)cc(CCN)cc1OC	16
CCOc1c(OC)cc(CCN)cc1OC	6
